Test results as given in patent US20100292169A1, “METHODS AND COMPOSITIONS FOR REGULATING HDAC6 ACTIVITY” (Duke University, priority 2005, published 2010).
Where a chain is given by its changes, count along the chain named. Square brackets hold non-standard residues; d marks the D form. Peptide text beside a SMILES is read from it. * marks the point of attachment. Aoe = N[C@@H](CCCCCC(=O)[C@@H]1CO1)C(=O)O; Cbz = O=C(OCc1ccccc1)*

Tests used:
p60^HOP and p50^cdc37 = assay: Rescue of p60HOP and p50cdc37 levels by proteasome inhibition after loss of HDAC6; assay type: cell-based
Source text: Since p60^HOP and p50^cdc37 are critical co-chaperones for Hsp90 function, these observations provide further evidence that HDAC6 is required for full Hsp90 chaperone function.

Hsp90-GR complex = assay: Hsp90-GR co-immunoprecipitation in A549 cells; assay type: cell-based; conditions: TSA 4 hours or HDAC6 knockdown
Method: (§1) Immunoprecipitation and immunostaining. Cells were lysed as described previously (Hubbert et al., 2002). Hsp90 antibody was pre-incubated with rabbit-anti-mouse (Jackson Labs) and Protein-A Sepharose beads (Roche) for 10 minutes. The bead/antibody mix was added to 750 μg of whole cell lysate and incubated at 4° C. for 3 hours. Samples were washed 4 times with 150 mM NETN(Hubbert et al., 2002) and subjected to SDS-PAGE and immunoblotting analysis. Immunolocalization of GR and HDAC6 was described previously (Hubbert et al., 2002).
(§2) Studies were also conducted to identify the molecular basis for the regulation of Hsp90 function via HDAC6-mediated deacetylation. Because the proper folding of GR by Hsp90 depends on the association of Hsp90 with a distinct set of co-chaperones into a chaperone complex (Neckers, 2002; Pratt and Toft, 2003), a determination was made regarding whether Hsp90 acetylation affects Hsp90/co-chaperone assembly. The p23 protein (Johnson and Toft, 1994) is a co-chaperone that stabilizes the Hsp90-GR complex and is critical for GR ligand binding activity in vitro and in vivo (Dittmar et al., 1997; Morishima et al., 2003). Control A549 cells and HDAC6 siRNA knockdown cells (KD) were left untreated or treated for 4 hours with TSA or TPXb. Lysates were immunoprecipitated with α-Hsp90 antibody followed by immunoblotting with α-p23 antibody. […]

Hsp90-p23 interactions = assay: Hsp90-p23 co-immunoprecipitation in A549 cells; assay type: cell-based; conditions: treated for 4 hours or HDAC6 siRNA knockdown
Method: as §1, §2

Hsp90 = Hsp90 acetylation: α-Hsp90 immunoprecipitation, α-AcK immunoblot, in A549 cells; assay type: cell-based
Method: as §1
HDAC6 regulates Hsp90 acetylation. To investigate the possibility that HDAC6 functions as an Hsp90 deacetylase, a determination was made regarding whether over-expression of HDAC6 can lead to Hsp90 deacetylation in vivo. […] A basal level of Hsp90 acetylation could be detected in control A549 cell lines. […] The reactions were then subjected to SDS-PAGE and immunoblotted with the indicated antibodies).
Hsp90 hyperacetylation is induced by dexamethasone and correlated with the dissociation of functional […]. Experiments were conducted to determine whether Hsp90 acetylation is regulated by dexamethasone. Control and HDAC6 knockdown A549 cells were cultured in hormone free media for 24 hours, and then stimulated with dexamethasone for the indicated time in hours. […]

HDAC members = conditions: cited from earlier work
[1] = target: glucocorticoid receptor (GR), endogenous, of A549 and 293T cells (human) (UniProt P04150); assay: cell-based or functional assay
[2] = target: T1, mouse glucocorticoid receptor (mGR), full length (mouse, UniProt P06537 1-792); assay: immunoadsorption of mGR from wild-type and HDAC6 knockdown 293T cells, immunoblot for coadsorbed p23 (within the GR.hsp90 complex)
T1 construct: stripped of chaperones with 0.5 M NaCl before reconstitution; also called mouse GR
T1 sequence (looked up): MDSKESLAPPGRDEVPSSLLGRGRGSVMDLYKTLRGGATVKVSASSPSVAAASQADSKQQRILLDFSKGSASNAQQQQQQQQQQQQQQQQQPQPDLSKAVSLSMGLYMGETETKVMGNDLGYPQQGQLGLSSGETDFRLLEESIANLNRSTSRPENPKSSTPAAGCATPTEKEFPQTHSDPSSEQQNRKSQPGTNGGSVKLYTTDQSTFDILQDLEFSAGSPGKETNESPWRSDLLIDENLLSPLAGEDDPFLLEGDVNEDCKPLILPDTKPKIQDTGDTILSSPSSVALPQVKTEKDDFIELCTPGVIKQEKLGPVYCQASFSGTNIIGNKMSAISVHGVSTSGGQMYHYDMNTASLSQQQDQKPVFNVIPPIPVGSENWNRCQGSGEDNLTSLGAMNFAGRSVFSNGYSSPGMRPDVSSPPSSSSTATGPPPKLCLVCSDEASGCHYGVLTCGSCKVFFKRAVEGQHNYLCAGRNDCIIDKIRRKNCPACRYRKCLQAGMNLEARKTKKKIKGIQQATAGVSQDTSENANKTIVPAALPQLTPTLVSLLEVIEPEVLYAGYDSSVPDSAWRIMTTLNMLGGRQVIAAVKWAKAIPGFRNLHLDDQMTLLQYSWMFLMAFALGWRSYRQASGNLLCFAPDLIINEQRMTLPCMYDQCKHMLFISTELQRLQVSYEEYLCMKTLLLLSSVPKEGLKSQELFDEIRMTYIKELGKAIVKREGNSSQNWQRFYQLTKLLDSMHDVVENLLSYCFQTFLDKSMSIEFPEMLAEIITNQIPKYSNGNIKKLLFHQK
Source text: Because an immunoadsorbing antibody against the human GR was not available, the mouse GR was transiently expressed in HEK cells.

[3] = target: acetylated (hyperacetylated) Hsp90 from HDAC6 knockdown or TSA-treated cells

Molecule: CC(C)C[C@@H](C=O)NC(=O)[C@H](CC(C)C)NC(=O)[C@H](CC(C)C)NC(=O)OCc1ccccc1 [MG132] (Cbz-Leu-Leu-Leu-aldehyde)
- rescue of the reduction of p60^HOP and p50^cdc37 (p60^HOP and p50^cdc37): partially rescued

Molecule: CC(/C=C/C(=O)NO)=C\[C@@H](C)C(=O)c1ccc(N(C)C)cc1 [trichostatin A]
- Hsp90 and GR interaction (Hsp90-GR complex): significantly reduced
- Hsp90-p23 interactions (Hsp90-p23 interactions): disrupted Hsp90-p23 interactions
- level of acetylated Hsp90 (Hsp90; A549 cells, treated for 4 hours (TPXb 100 nM) or stably expressing siRNA): dramatic rise in the level of acetylated Hsp90
- Hsp90 acetylation in HDAC6 knockdown cells (Hsp90; HDAC6 knockdown A549 cells, TSA treatment): little effect on Hsp90 acetylation

Molecule: O=C1N[C@@H](Cc2ccccc2)C(=O)N2CCC[C@@H]2C(=O)N[C@@H](CCCCCC(=O)[C@@H]2CO2)C(=O)N[C@H]1Cc1ccccc1 [TPXb] (cyclo(FF[dP][Aoe]))
- HDAC inhibition profile (HDAC members): a potent inhibitor for all HDAC members except HDAC6
- Hsp90-p23 interactions (Hsp90-p23 interactions): had little effect

Molecule: acetylated (hyperacetylated) Hsp90 from HDAC6 knockdown or TSA-treated cells
- GR ligand binding activity ([^3H]dexamethasone bound in 293T cytosol) (fold reduction) [1]: 6

B1: p23 protein (Hsp90 co-chaperone), endogenous, of A549 and 293T cells (other, UniProt Q15185 1-160, looked up)
chain: MQPASAKWYDRRDYVFIEFCVEDSKDVNVNFEKSKLTFSCLGGSDNFKHLNEIDLFHCIDPNDSKHKRTDRSILCCLRKGESGQSWPRLTKERAKLNWLSVDFNNWKDWEDDSDEDMSNFDRFSEMMNNMGGDEDVDLPEVDGADDDSQDSDDEKMPDLE
- binding result [2]: binds

B2: Flag-HDAC6 (FLAG-tagged wild-type HDAC6) (protein)
chain: MTSTGQDSTTTRQRRSRQNPQSPPQDSSVTSKRNIKKGAVPRSIPNLAEVKKKGKMKKLGQAMEEDLIVGLQGMDLNLEAEALAGTGLVLDEQLNEFHCLWDDSFPEGPERLHAIKEQLIQEGLLDRCVSFQARFAEKEELMLVHSLEYIDLMETTQYMNEGELRVLADTYDSVYLHPNSYSCACLASGSVLRLVDAVLGAEIRNGMAIIRPPGHHAQHSLMDGYCMFNHVAVAARYAQQKHRIRRVLIVDWDVHHGQGTQFTFDQDPSVLYFSIHRYEQGRFWPHLKASNWSTTGFGQGQGYTINVPWNQVGMRDADYIAAFLHVLLPVALEFQPQLVLVAAGFDALQGDPKGEMAATPAGFAQLTHLLMGLAGGKLILSLEGGYNLRALAEGVSASLHTLLGDPCPMLESPGAPCRSAQASVSCALEALEPFWEVLVRSTETVERDNMEEDNVEESEEEGPWEPPVLPILTWPVLQSRTGLVYDQNMMNHCNLWDSHHPEVPQRILRIMCRLEELGLAGRCLTLTPRPATEAELLTCHSAEYVGHLRATEKMKTRELHRESSNFDSIYICPSTFACAQLATGAACRLVEAVLSGEVLNGAAVVRPPGHHAEQDAACGFCFFNSVAVAARHAQTISGHALRILIVDWDVHHGNGTQHMFEDDPSVLYVSLHRYDHGTFFPMGDEGASSQIGRAAGTGFTVNVAWNGPRMGDADYLAAWHRLVLPIAYEFNPELVLVSAGFDAARGDPLGGCQVSPEGYAHLTHLLMGLASGRIILILEGGYNLTSISESMAACTRSLLGDPPPLLTLPRPPLSGALASITETIQVHRRYWRSLRVMKVEDREGPSSSKLVTKKAPQPAKPRLAERMTTREKKVLEAGMGKVTSASFGEESTPGQTNSETAVVALTQDQPSEAATGGATLAQTISEAAIGGAMLGQTTSEEAVGGATPDQTTSEETVGGAILDQTTSEDAVGGATLGQTTSEEAVGGATLAQTTSEAAMEGATLDQTTSEEAPGGTELIQTPLASSTDHQTPPTSPVQGTTPQISPSTLIGSLRTLELGSESQGASESQAPGEENLLGEAAGGQDMADSMLMQGSRGLTDQAIFYAVTPLPWCPHLVAVCPIPAAGLDVTQPCGDCGTIQENWVCLSCYQVYCGRYINGHMLQHHGNSGHPLVLSYIDLSAWCYYCQAYVHHQALLDVKNIAHQNKFGEDMPHPH
- in vitro deacetylation of acetylated Hsp90 (37° C., 60 minutes; α-AcK immunoblot) [3]: immuno-purified wild type but not catalytically inactive mutant HDAC6 can efficiently deacetylate acetylated Hsp90 in vitro
- restoration of stable GR.hsp90 heterocomplex assembly activity after incubation with immunopurified FLAG-HDAC6 [3]: The stable heterocomplex assembly activity of purified knockdown cell hsp90 is restored to the level of purified wild-type hsp90 by incubation with immunopurified FLAG-HDAC6

B3: Flag-HDAC6-cat-mut (H216/611A, catalytically inactive mutant) (protein)
chain: B2 chain with H216A, H611A
- in vitro deacetylation of acetylated Hsp90 (37° C., 60 minutes; α-AcK immunoblot) [3]: immuno-purified wild type but not catalytically inactive mutant HDAC6 can efficiently deacetylate acetylated Hsp90 in vitro
